According to paper PMC4878759 (PLoS ONE, 2016):

Experiments:
ANO1 [1] = target: T1, ANO1 (Homo sapiens, UniProt Q5XXA6, DEL476-501); assay: Apical membrane current in ANO1 expressing FRT cells; assay type: cell-based; details: 100 μM ATP
T1 construct: expressed in transfected cells
T1 sequence (Q5XXA6 with tags, fused parts or gaps isoform Q5XXA6-5 DEL539-564): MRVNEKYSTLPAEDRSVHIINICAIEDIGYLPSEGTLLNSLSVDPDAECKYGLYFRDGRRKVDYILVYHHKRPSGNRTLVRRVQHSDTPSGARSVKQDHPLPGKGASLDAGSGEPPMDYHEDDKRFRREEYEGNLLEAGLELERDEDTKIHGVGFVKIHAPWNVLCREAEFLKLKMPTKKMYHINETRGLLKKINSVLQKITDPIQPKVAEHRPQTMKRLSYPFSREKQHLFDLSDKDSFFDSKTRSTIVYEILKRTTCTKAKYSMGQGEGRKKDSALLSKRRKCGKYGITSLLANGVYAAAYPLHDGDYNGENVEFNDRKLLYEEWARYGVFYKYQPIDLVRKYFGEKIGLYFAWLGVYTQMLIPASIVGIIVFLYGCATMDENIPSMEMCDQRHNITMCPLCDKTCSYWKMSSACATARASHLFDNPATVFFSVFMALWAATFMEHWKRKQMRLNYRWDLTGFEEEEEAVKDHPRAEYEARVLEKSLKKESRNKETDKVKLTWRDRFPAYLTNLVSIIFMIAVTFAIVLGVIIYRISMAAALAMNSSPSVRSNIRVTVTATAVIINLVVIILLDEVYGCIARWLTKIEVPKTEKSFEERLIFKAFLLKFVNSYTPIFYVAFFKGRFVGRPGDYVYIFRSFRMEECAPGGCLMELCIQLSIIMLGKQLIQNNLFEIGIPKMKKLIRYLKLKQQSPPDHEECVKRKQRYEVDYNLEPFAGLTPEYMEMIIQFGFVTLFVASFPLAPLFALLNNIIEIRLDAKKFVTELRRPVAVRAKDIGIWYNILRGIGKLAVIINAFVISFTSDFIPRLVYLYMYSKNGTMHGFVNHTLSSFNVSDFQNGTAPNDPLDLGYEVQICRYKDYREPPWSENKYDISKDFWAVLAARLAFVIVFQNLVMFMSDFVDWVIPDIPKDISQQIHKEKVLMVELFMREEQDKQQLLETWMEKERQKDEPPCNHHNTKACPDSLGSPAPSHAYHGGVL
Experimental: (§1) Snapwell inserts containing ANO1, ANO2 or CFTR expressing FRT cells, ENaC expressing T-84 cells or the human primary airway epithelial cells were mounted in Ussing chambers (Physiologic Instruments, San Diego, CA). To induce transcriptional ENaC induction, the polarized T84 cells were incubated with 2 mM sodium butyrate for 2 days. To increase the functional expression of ANO1, the human airway epithelial cells were treated with IL-4 (10 ng/mL) for 2 days. For T-84 and the human primary airway epithelial cells, the apical and basolateral bath were filled with HCO3^—buffered solution containing (in mM): 120 NaCl, 5 KCl, 1 MgCl2, 1 CaCl2, 10 D-glucose, 2.5 HEPES, and 25 NaHCO3 (pH 7.4). For FRT cells, the basolateral bath was filled with the HCO3^—buffered solution and the apical bath was filled with a half-Cl^- solution. In the half-Cl^- solution 65 mM NaCl in the HCO3^—buffered solution was replaced by Na-gluconate. […] ATP was applied to the apical bath solution to induce intracellular calcium increase. […] Apical membrane currents were measured with an EVC4000 Multi-Channel V/I Clamp (World Precision Instruments, Sarasota, FL) and PowerLab 4/35 (AD Instruments, Castle Hill, Australia). Data were analyzed using Labchart Pro 7 (AD Instruments). The sampling rate was 4 Hz.

VRAC [2] = assay: VRAC activity by YFP quenching in LN215 cells; assay type: cell-based, human; details: 10 μM
Experimental: LN215 cells, a human glioma cell line, were stably transfected with YFP-F46L/H148Q/I152L, a halide sensor YFP. After the cells were incubated on 96well black plates (Corning Inc., Corning, NY) for 48 hours, each well of the 96-well plate was washed 3 times in PBS (200 μL/wash), and the wells were filled with 50 μl/well isotonic solution (in mM): 140 NaCl, 5 KCl, 20 HEPES (310 mOsm/kg; pH 7.4 with NaOH). In each well, VRAC expressed on the cells were stimulated with addition of 50 μl of hypotonic solutions (in mM): 5 KCl, 20 HEPES, 90 mannitol (120 mOsm/kg). Test compounds (1 μL) were added to each well in a dose dependent manner. After 5 min, 96-well plates were transferred to a plate reader for fluorescence assay. Each well was assayed individually for VRAC-mediated I^- influx by recording fluorescence continuously (400 ms per point) for 7.6 s. YFP fluorescence was recorded 0.4 s for baseline, then 100 μL of 140 mM I^- solution was added at 0.4 s to see the change in fluorescence. Initial iodide influx rate was determined from the initial slope of fluorescence decrease, by nonlinear regression, following infusion of iodide.

mouse ANO2 = target: T2, mouse ANO2 (Mus musculus, UniProt Q8CFW1); assay: YFP quenching assay in FRT cells expressing ANO2; assay type: cell-based; details: dose dependent, 100 μM ATP
T2 sequence (Q8CFW1 1-1002): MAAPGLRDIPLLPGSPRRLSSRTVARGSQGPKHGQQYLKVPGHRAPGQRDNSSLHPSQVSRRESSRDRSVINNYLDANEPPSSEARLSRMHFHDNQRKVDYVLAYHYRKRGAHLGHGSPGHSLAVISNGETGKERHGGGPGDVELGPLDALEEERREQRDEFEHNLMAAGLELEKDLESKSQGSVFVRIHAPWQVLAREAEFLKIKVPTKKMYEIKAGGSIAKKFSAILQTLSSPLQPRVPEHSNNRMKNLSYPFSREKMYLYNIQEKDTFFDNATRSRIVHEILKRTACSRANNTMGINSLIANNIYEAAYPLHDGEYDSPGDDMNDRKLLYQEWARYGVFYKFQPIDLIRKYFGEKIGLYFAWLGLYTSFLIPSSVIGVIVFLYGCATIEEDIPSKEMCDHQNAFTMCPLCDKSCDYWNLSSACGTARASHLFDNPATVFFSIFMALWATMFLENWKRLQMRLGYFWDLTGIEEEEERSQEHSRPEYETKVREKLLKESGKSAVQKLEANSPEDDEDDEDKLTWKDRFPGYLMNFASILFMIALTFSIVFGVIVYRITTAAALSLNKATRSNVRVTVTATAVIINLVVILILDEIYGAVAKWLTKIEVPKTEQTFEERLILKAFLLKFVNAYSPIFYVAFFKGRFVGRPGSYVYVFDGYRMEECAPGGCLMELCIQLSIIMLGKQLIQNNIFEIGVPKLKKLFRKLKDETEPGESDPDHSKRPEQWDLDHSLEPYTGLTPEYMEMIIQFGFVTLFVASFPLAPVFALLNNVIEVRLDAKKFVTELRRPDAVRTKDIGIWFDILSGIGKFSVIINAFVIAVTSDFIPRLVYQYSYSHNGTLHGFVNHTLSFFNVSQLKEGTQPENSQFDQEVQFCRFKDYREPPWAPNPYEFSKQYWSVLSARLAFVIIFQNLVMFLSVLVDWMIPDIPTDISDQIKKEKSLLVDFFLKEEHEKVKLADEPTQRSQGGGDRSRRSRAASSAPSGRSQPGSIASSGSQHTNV

ANO2 = target: T3, ANO2 (Mus musculus, UniProt Q8CFW1); assay: Apical membrane current in FRT-ANO2 cells; assay type: cell-based; details: 10 μM pretreatment
T3 sequence (Q8CFW1 1-1002): T2 sequence (Q8CFW1 1-1002)
Experimental: as §1
ANO1 belongs to anoctamin gene family which contains ten members presenting eight-pass transmembrane segments with cytosolic N- and C-terminals. ANO2 shares a high level of amino acid homology to ANO1 (~60%) and, ANO1 and ANO2 are confirmed CaCCs. However, the roles of other family members (ANO3-ANO10) remain poorly understood and controversial. […] We investigated the effect of these inhibitors on ANO2-mediated apical membrane current in FRT-ANO2 cells.

ANO1 [3] = test system: ANO1; design: method as in PMID 25739000; details: spontaneously hypertensive rats (SHRs) ref [8]; cited from earlier work
ANO1 [4] = test system: ANO1; design: method as in PMID 25848051; details: mice ref [14]; cited from earlier work
VRAC [5] = test system: VRAC; design: method as in PMID 24965069, PMID 25163766, PMID 26438191; details: ref [26]–[28]; cited from earlier work
CaCCs in NHNE cells = target: T4, CaCCs in NHNE cells (Homo sapiens, UniProt Q5XXA6); assay: Short-circuit current of CaCC in IL-4 treated NHNE cells; assay type: cell-based; details: 100 μM
T4 sequence (Q5XXA6 1-986): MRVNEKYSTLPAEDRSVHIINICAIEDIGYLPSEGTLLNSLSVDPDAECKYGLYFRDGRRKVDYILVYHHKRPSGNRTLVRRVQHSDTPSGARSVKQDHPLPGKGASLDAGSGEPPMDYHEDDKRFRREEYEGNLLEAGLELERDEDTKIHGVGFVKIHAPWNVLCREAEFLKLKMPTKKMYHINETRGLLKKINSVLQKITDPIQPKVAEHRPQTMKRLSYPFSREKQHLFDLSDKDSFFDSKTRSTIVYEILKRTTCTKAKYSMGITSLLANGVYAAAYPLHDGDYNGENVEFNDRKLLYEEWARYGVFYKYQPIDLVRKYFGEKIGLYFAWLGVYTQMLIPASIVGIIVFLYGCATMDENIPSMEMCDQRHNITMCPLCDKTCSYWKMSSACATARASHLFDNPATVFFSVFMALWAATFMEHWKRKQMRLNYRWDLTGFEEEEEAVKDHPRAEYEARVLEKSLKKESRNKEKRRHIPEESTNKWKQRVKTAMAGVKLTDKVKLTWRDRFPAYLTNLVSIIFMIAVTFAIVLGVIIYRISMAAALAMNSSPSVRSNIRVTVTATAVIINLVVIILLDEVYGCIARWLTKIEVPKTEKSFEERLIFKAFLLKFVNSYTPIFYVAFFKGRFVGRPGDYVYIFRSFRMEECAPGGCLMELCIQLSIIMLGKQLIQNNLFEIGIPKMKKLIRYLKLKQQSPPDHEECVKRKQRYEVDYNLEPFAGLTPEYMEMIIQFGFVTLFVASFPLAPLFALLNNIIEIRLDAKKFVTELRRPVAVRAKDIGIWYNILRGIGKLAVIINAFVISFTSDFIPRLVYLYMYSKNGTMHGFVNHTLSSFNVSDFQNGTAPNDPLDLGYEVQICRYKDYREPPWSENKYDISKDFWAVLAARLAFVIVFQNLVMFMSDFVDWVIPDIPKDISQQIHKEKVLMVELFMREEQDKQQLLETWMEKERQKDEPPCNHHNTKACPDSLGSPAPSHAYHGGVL
Experimental: Snapwell inserts containing ANO1, ANO2 or CFTR expressing FRT cells, ENaC expressing T-84 cells or the human primary airway epithelial cells were mounted in Ussing chambers (Physiologic Instruments, San Diego, CA). To induce transcriptional ENaC induction, the polarized T84 cells were incubated with 2 mM sodium butyrate for 2 days. To increase the functional expression of ANO1, the human airway epithelial cells were treated with IL-4 (10 ng/mL) for 2 days. For T-84 and the human primary airway epithelial cells, the apical and basolateral bath were filled with HCO3^—buffered solution containing (in mM): 120 NaCl, 5 KCl, 1 MgCl2, 1 CaCl2, 10 D-glucose, 2.5 HEPES, and 25 NaHCO3 (pH 7.4). For FRT cells, the basolateral bath was filled with the HCO3^—buffered solution and the apical bath was filled with a half-Cl^- solution. In the half-Cl^- solution 65 mM NaCl in the HCO3^—buffered solution was replaced by Na-gluconate. […] ATP was applied to the apical bath solution to induce intracellular calcium increase. […] Apical membrane currents were measured with an EVC4000 Multi-Channel V/I Clamp (World Precision Instruments, Sarasota, FL) and PowerLab 4/35 (AD Instruments, Castle Hill, Australia). Data were analyzed using Labchart Pro 7 (AD Instruments). The sampling rate was 4 Hz. […]

Compound	inhibition of ATP-induced ANO1 current (ANO1 [1]; 10 μM pretreatment)	IC50 (ANO1 [1]; apical membrane current, 20 min pretreatment, read-out: IC50 of ATP-induced ANO1 activation) [µM]	inhibition of VRAC activity (VRAC [2]) [%]	effect on ANO2 activity (mouse ANO2)	effect on ATP-induced ANO2 current (ANO2)	effect on BP (ANO1 [3])	effect on capsaicin-evoked pain-related behaviors (ANO1 [4])	block of VRAC activity (VRAC [5])	effect on remaining CaCCs currents (CaCCs in NHNE cells)
CCc1c(C)nc(SCC(=O)Nc2nc(-c3ccc(OC)cc3)cs2)[nH]c1=O [Ani T16Ainh-A01]	almost complete inhibition	1.39 ± 0.59	71.2 ± 1.6	potently blocked	strongly blocked	significantly reduced	significantly reduced	potently blocked	
tannic acid									abolished
